Results on one compound are retold here after EP4385508A1, “FURAN FATTY ACIDS FOR ENHANCING MUSCLE MASS” (Centre de Coopération Internationale en Recherche …, priority 2022, dated 2024).

Assay [1] concerns myosin heavy chain (MyHC). In words: Slow and fast MyHC protein levels by Western blot in C2C12 myotubes. Type of assay: cell-based, Mouse. The procedure: (§1) Mouse myoblasts of the C2C12 cell line (ATCC) were seeded at a plating density of 7000 cells/cm2 in 6-well plates. They were grown in DMEM high glucose (4.5g/l) supplemented with gentamycin (50 µg/mL), amphotericin (50 µg/mL), and fetal calf serum (10%). Terminal differentiation was induced at cell confluence by lowering the medium serum concentration (0.5%).
(§2) When indicated, FuFA-F2 was added to the culture medium at the indicated concentration. For the differentiation studies, FuFA-F2 was added at the confluence at the same time as the change in media condition. Three doses of FuFA-F2 were studied at a final concentration of 1, 10, or 50 µM. Human insulin was used at a concentration of 100 nM.
Protein levels were assessed by Western blotting. Total proteins were measured using the Bio-Rad protein assay (Hercules, CA, USA) according to the manufacturer's instructions. Total proteins were lysed in RIPA buffer (20mM Tris, 150mM NaCl, 1mM EDTA, 1% NP40, pH 7.5 + complete cocktail protease inhibitors + Pierce phosphatase inhibitors tablet). 40 µg of cell extracts were loaded and blotted onto a nitrocellulose membrane. The membranes were washed, blocked with 5% nonfat milk and incubated in primary antibody overnight at 4°C. […]
(Figure 5A), commonly used as a quantitative marker of intact mitochondria. […]
A general note: In western blotting, separated proteins are transferred to a membrane and probed.

The test system of a further assay is Citrate synthase (CS). Description: Citrate synthase activity in quadriceps of supplemented C57Bl6 mice. The assay is classed as in vivo. Conditions: 20mg/kg oral gavage. Here is the method: Male C57Bl/6J wild-type mice were obtained from Janvier at 12 weeks of age and were randomly assigned to one of the two groups based on body weight. Mice were housed 2 per cage and maintained on a 12-hour light/dark cycle (lights on at 7:30 pm). Food and water were provided ad libitum. Enrichment (nesting cotton squares) was provided in each cage. Mice were treated once daily by oral gavage with vehicle (50% PEG-400, 0.5% Tween 80, and 49.5% distilled water) or FuFA-F2 (20 mg/kg). All animal experiments were performed according to European directives (86/609/CEE and 2010/63/CEE) and approved by the regional animal experimentation ethics committe: Région Languedoc-Roussillon (No36). […]
Mitochondrial respiratory complex activities were determined as previously described (Casas et al., 2008, PloS ONE, Vol. 3(6) : e2501). Citrate synthase (CS) activity was measured according to Srere (Srere et al., 1967, Science, Vol. 158(3803) : 936-937) by following the color formation of 5-thio-2-nitrobenzoic acid at 412 nm. The enzymatic activity of complex IV (cytochrome c oxidase) was measured according to Wharton and Tzagoloff (Wharton et al., 1967, Methods in Enzymology, Vol. 10, Edn Elsevier BV, Amsterdam, The Netherlands), a spectrophotometer following the oxidation of reduced cytochrome c at 550 nm, pH 7.4, and 37 °C. […]

A further assay relates to mTOR (Ser2448). In words: mTOR phosphorylation by Western blot in C2C12 myotubes. The assay is classed as cell-based, Mouse. Here is the method:
as §1, §2
Protein levels were assessed by Western blotting. Total proteins were measured using the Bio-Rad protein assay (Hercules, CA, USA) according to the manufacturer's instructions. Total proteins were lysed in RIPA buffer (20mM Tris, 150mM NaCl, 1mM EDTA, 1% NP40, pH 7.5 + complete cocktail protease inhibitors + Pierce phosphatase inhibitors tablet). 40 µg of cell extracts were loaded and blotted onto a nitrocellulose membrane. The membranes were washed, blocked with 5% nonfat milk and incubated in primary antibody overnight at 4°C. The membranes were then washed in TBS-Tween (10mM Tris, 140mM NaCl, and 0.2% Tween-20), incubated with the appropriate secondary antibody coupled to horseradish peroxidase, and washed again in TBS-Tween. […] Touch Software (version 5.2.1) (Hercules, CA, USA). […]
It is shown that FuFA-F2 increased protein accretion in myotubes. Protein homeostasis is determined by the dynamic balance between protein synthesis and degradation. Protein synthesis was evaluated by measuring the phosphorylation of Akt (Ser473), mTOR (Ser2448) and 4E-BP1 (Thr37/46), which are major regulators of translation and protein synthesis. […]

As to `CCCCCc1cc(C)c(CCCCCCCCC(=O)O)o1` [FuFA-F2], in assay [1] (10 µM), the “expression of slow MyHC” value was “significantly increased”. In assay [1] (highest dose (50 µM)), the “fast MyHC” value is given as “decrease”. Further, in the assay with Citrate synthase (CS), the “Citrate synthase (CS)” value is on record as “not modified”. Also, the “mTOR phosphorylation at Ser2448” value in the assay on mTOR (Ser2448) (3-day pretreatment, 2 hours low-glucose medium, then treatment for 30 minutes, insulin alone 100 nM) is “significant increase”. Further, in the assay with mTOR (Ser2448) (high glucose medium, 3 days, with or without FuFA-F2), the mTOR phosphorylation entry was “no difference”. Moreover, the “rapid effect on mTOR phosphorylation” value with mTOR (Ser2448) (without pretreatment, 30 min incubation after low-glucose medium) was “not observed”.
